Reference: patent publication US8933070B2, “Methods of targeting PTEN mutant diseases and compositions therefor” (University Health Network, priority 2010, dated 2015)

How the values were obtained:
[1] = target: T1, PLK1 (Homo sapiens, UniProt P53350); test: PLK1 inhibition assay (Z-Lyte); format: biochemical; conditions: dose of 10 μM; read-out: PLK1 relative inhibition percentage
T1 construct: purchased Invitrogen PV3501
Experimental: PLK1 inhibition was determined using the Z-Lyte assay kit from Invitrogen (cat#PV3802). The assay was performed using the recommended manufacturer's instructions with 25 μM ATP and 8 nM PLK1 (Invitrogen cat #PV3501). The % inhibition values were determined according to the manufacturer's directions and IC50 values were obtained using a non-linear 4 point logistic curve fit (XLfit4, IDBS)

[2] = target: T2, PLK2 (Homo sapiens, UniProt Q9NYY3); test: PLK2 inhibition assay (Z-Lyte); format: biochemical; conditions: for inhibition at 10 µM: dose of 10 μM, read-out: PLK2 relative inhibition percentage
T2 construct: purchased Invitrogen PV4204
Experimental: (§1) PLK2 inhibition was determined using the Z-Lyte assay kit from Invitrogen (cat# PV3802). The assay was performed using the recommended manufacturer's instructions with 60 μM ATP and 133 nM PLK2 (Invitrogen cat #PV4204). The % inhibition values were determined according to the manufacturer's directions and IC50 values were obtained using a non-linear 4 point logistic curve fit (XLfit4, IDBS)

[3] = tested on: MDA-MB-468 basal breast cancer cell line; test: Cell growth inhibition, Sulforhodamine B (SRB) assay; format: cell-based; conditions: Homo sapiens, MDA-MB-468, 120 h; 5 days, SRB; read-out: Cell Line GI50 Range MDA-MB-468
[4] = tested on: MCF-7 luminal breast cancer cell line; test: as above; format: cell-based; conditions: Homo sapiens, MCF7, 120 h; 5 days, SRB; read-out: Cell Line GI50 Range MCF-7
Experimental: (§2) Aliquots (20 μl) from each concentration were overlaid to 80 μl of the pre-seeded cells in the 96-plates to make final concentrations of 10 nM to 50 μM. The cells were cultured for 5 days before the Sulforhodamine B (SRB) assay was performed to determine the compound's cell growth inhibition activity.
(§3) Sulforhodamine B (Sigma, Canada) is a water-soluble dye that binds to the basic amino acids of cellular proteins. Thus, colorimetric measurement of the bound dye provides an estimate of the total protein mass that is related to the cell number. The cells are fixed in situ by gently aspirating off the culture media and adding 50 μl ice cold 10% Trichloroacetic Acid (TCA) per well and incubated at 4° C. for 30-60 min. The plates are washed with water five times and allowed to air dry for 5 min. Addition of 50 μl 0.4% (w/v) SRB solution in 1% (v/v) acetic acid to each well and incubatation for […] at RT completes the staining reaction. Following staining, plates are washed four times with 1% acetic acid to remove unbound dye and then allowed to air dry for 5 min. […] Absorbance is read at 570 nm.
(§4) The percentage (%) of relative growth inhibition was calculated by comparing to DMSO-treated only cells (100%). GI50's were determined for compounds with cytotoxic activity. The GI50 was calculated using GraphPad PRISM software (GraphPad Software, Inc., USA).

[5] = tested on: SW620 colon cancer cell line; test: as above; format: cell-based; conditions: Homo sapiens, SW-620, 120 h; 5 days, SRB; read-out: Cell Line GI50 Range SW620
Experimental: as §2, §3, §4

[6] = tested on: human mammary epithelial primary cells (HMEC); test: as above; format: cell-based; conditions: 120 h, 5 days, SRB, normal primary breast cells, read-out: Cell Line GI50 Range HMEC
Experimental: as §2, §3, §4

[7] = tested on: A549 lung cancer cell line; test: as above; format: cell-based; conditions: Homo sapiens, A549, 120 h; 5 days, SRB; read-out: Cell Line GI50 Range A549
Experimental: as §2, §3, §4

[8] = tested on: HCC1954 basal breast cancer cell line; test: as above; format: cell-based; conditions: Homo sapiens, HCC1954, 120 h; 5 days, SRB; Table 5; read-out: Cell Line GI50 Range HCC1954
Experimental: as §2, §3, §4
The SRB assay described above was used to assay test compounds against the extended panel (Table 6).

[9] = target: T3, human PLK4 (Homo sapiens, UniProt O00444); test: PLK4 inhibition assay (indirect ELISA); format: biochemical; conditions: read-out: IC50 Ranges PLK4
T3 construct: amino terminal GST fusion of residues 1-391 of human PLK4; made in house; host or cells: E. coli
T3 sequence (O00444 1-391): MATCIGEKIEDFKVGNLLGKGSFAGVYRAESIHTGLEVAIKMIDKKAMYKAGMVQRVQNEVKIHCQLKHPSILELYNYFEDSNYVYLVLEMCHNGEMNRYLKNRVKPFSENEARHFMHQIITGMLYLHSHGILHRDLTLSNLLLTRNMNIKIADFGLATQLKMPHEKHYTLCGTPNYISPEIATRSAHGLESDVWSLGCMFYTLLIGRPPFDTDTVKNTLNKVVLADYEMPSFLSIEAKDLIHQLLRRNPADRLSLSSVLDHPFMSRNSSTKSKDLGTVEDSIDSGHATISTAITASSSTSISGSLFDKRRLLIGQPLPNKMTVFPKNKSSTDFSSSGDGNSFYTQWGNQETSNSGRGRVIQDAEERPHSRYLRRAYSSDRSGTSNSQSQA
Experimental: The protein was purified from clarified cell extracts after induction at 15° C. overnight using glutathione sepharose, gel permeation chromatography, and ion exchange (Resource Q). The resulting protein was dephosphorylated with lambda phosphatase (NEB cat# P0753), and resolved from the phosphatase using gluthione sepharose. The dephosphorylated GST-PLK4 was stored in aliquots at −80° C. until use.
PLK4 activity was measured using an indirect ELISA detection system. […] The colourimetric reaction was allowed to continue for 5 minutes, followed by addition of stop solution (0.5 N sulphuric acid), and quantified by detection at 450 nm with either a monochromatic or filter based plate reader (Molecular Devices M5 or Beckman DTX880, respectively).
Compounds were pre-incubated in the presence of enzyme for 15 minutes prior to addition of ATP and the activity remaining quantified using the above described activity assay. […] The IC50 value was determined using a non-linear 4 point logistic curve fit (XLfit4, IDBS) with the formula; (A+(B/(1+((x/C)^D)))), where A=background value, B=range, C=inflection point, D=curve fit parameter.

[10] = tested on: AMPKalpha; test: Kinase selectivity assay (CEREP, HTRF); format: biochemical, human
Experimental: The inhibitory activity of selected compounds was evaluated against a panel of 45 different kinase enzymes by CEREP, France. The assays were performed using standard HTRF assay methods as documented by CEREP against the human orthologues of Abl kinase, Akt1/PKBa, AMPKa, BMX kinase (Etk), Brk, CaMK2a, CaMK4, CDC2/CDK1 (cycB), CHK1, CHK2, c-Met kinase, CSK, EphB4 kinase, ERK1, ERK2 (P42mapk), FGFR2 kinase, FGFR4 kinase, FLT-1 kinase (VEGFR1), FLT-3 kinase, Fyn kinase, IGF1R kinase, IRK (InsR), JNK 2, KDR kinase (VEGFR2), Lck kinase, Lyn kinase, MAPKAPK2, MEK1/MAP2K1, p38a kinase, p38d kinase, p38g kinase, PDGFRb kinase, PDK1, PKA, PKCa, PKCb1, PKCb2, PKCg, Ret kinase, ROCK2, RSK2, Src kinase, Syk, and TRKA. The % Inhibition was determined by the formula; % Inhibition=100×(1−(experimental value−background value)/(high activity control−background value)).

[11] = target: FGFR1; test: Millipore kinase assay (radiolabelled phosphopeptide filter binding), IC50 estimate; format: biochemical; conditions: estimated from inhibition at three compound concentrations; ATP at Km; read-out: IC50 value estimates against FGFR1
Experimental: For a number of compounds, IC50 values were estimated against kinases of interest based on Millipore protocols. Kinase assays at Millipore were performed using a radiolabelled phosphopeptide filter binding detection system, in duplicate, at each compound concentration. The ATP substrate concentration in the reactions was at the Km for each enzyme.
To allow for a more direct comparison of compound inhibition, an IC50 value was estimated from the inhibition determined at three compound concentrations. Several assumptions were made to allow this calculation using a 4 parameter non linear curve fit model, including full inhibition set at 100%, no inhibition set to 0%, and a curve fit parameter set at 1. The inflection point was reported as the estimated […].

[12] = target: T4, Aurora B (Homo sapiens, UniProt Q96GD4); test: Aurora B inhibition assay (Z-Lyte); format: biochemical; conditions: read-out: IC50 Ranges Aurura B
T4 construct: purchased Invitrogen PV3970
Experimental: Aurora B inhibition was determined using the Z-Lyte assay kit from Invitrogen. […] The % inhibition values were determined according to the manufacturer's directions and IC50 values were obtained using a non-linear 4 point logistic curve fit (XLfit4, IDBS).

[13] = target: T5, Aurora A (Homo sapiens, UniProt O14965); test: Aurora A inhibition assay (Z-Lyte); format: biochemical; conditions: for inhibition at 10 µM: dose of 10 μM, read-out: Aurora A relative inhibition percentage
T5 construct: purchased Invitrogen PV3612
T5 sequence (O14965 1-403): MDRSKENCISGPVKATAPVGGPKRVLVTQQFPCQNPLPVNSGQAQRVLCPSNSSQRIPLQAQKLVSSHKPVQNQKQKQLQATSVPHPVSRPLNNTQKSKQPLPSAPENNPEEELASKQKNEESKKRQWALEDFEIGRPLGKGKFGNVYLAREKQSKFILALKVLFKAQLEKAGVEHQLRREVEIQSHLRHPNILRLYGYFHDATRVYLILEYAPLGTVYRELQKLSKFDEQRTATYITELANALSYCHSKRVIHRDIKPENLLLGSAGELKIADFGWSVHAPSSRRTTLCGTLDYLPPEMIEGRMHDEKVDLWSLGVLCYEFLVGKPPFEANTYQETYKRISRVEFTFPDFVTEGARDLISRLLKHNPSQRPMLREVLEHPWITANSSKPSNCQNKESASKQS
Experimental: as §1, with “Aurora A” for “PLK2”, “Invitrogen.” for “Invitrogen (cat# PV3802).”, “20 nM” for “60 μM”, “12” for “133”, “#PV3612).” for “#PV4204).”

T4 sequence (Q96GD4 whole entry): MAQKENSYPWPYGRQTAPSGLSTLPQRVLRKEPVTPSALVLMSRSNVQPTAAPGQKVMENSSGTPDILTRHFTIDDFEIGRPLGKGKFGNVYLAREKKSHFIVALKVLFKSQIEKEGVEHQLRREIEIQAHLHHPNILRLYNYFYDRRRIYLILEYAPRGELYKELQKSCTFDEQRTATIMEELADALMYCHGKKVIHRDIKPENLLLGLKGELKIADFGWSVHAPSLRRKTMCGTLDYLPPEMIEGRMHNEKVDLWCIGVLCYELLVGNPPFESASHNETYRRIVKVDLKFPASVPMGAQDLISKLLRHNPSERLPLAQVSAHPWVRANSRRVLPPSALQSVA
T2 sequence (Q9NYY3 whole entry): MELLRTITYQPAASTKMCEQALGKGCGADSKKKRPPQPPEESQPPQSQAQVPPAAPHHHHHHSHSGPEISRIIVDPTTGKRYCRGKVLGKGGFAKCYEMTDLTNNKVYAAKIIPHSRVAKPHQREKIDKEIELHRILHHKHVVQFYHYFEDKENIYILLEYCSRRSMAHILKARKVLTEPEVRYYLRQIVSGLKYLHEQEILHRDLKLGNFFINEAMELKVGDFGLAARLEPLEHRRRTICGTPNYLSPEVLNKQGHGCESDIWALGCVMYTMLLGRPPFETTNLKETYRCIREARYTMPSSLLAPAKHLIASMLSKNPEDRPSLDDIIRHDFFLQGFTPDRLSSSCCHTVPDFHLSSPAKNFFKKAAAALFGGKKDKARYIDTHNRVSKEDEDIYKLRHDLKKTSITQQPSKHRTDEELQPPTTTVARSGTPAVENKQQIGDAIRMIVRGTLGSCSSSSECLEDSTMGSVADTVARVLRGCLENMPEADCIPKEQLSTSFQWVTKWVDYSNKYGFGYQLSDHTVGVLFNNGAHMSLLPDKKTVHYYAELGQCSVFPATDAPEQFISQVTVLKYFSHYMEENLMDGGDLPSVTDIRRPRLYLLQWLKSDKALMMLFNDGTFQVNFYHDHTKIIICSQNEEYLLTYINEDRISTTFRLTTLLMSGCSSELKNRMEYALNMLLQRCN
T1 sequence (P53350 whole entry): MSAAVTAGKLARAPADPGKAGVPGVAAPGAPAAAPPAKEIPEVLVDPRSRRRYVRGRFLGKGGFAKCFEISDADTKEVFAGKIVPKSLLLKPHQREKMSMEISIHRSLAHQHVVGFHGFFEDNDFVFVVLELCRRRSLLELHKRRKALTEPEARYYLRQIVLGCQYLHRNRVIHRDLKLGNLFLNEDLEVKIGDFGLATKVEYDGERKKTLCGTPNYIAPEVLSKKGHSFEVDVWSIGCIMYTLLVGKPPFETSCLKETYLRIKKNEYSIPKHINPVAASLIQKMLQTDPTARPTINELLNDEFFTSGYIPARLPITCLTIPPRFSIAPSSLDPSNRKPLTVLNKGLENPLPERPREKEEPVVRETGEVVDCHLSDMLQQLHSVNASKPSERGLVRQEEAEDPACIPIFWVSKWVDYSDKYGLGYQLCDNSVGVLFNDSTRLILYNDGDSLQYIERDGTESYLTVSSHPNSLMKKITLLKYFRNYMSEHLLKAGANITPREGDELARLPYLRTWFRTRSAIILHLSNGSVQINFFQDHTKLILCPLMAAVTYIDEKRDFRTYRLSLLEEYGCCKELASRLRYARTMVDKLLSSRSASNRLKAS

**Q.** With `CN(C)Cc1ccc(/C=C/c2n[nH]c3cc([C@@H]4C[C@@]45C(=O)Nc4ccccc45)ccc23)cc1` (racemic) [Compound 5] as the compound, how does the inhibition at 10 µM [1] read?
**A.** < 50%

**Q.** What about the inhibition at 10 µM [2] of the same compound?
**A.** < 50%

**Q.** What does the source list for `O=C1Nc2ccccc2[C@@]12C[C@@H]2c1ccc2c(/C=C/c3ccncc3)n[nH]c2c1` (racemic) [Compound 6]?
**A.** GI50 [3]: < 5 µM; GI50 [4]: < 5 µM; GI50 [5]: < 5 µM; GI50 [6]: 5 to 20 µM; GI50 [7]: < 5 µM; GI50 [8]: < 5 µM; inhibition at 10 µM [2]: < 50%

**Q.** How did the IC50 ([2]; read-out: IC50 Ranges PLK2) turn out when `O=C1Nc2ccccc2[C@@]12C[C@@H]2c1ccc2cn[nH]c2c1` (racemic) [Compound 40] was run?
**A.** > 50 µM

**Q.** `COc1ccc2c(c1)/C(=C\c1ccc3c(/C=C/c4ccc(CN(C)C)cc4)n[nH]c3c1)C(=O)N2` [Compound 1] was tested. Which IC50 [9] did it give?
**A.** < 5 µM

**Q.** For `O=C1Nc2ccccc2C1=Cc1ccc2c(/C=C/c3ccccn3)n[nH]c2c1` [Compound 9], which “% Inhibition at 10 μM Concentration” value [10] is on record?
**A.** 81%

**Q.** What about the IC50 [11] of the same compound?
**A.** < 5 µM

**Q.** Which IC50 [12] does the source give for `Cc1ncsc1/C=C/c1n[nH]c2cc(/C=C3/C(=O)Nc4ccccc43)ccc12` [Compound 10] here?
**A.** < 5 µM

**Q.** And the IC50 [9]?
**A.** < 5 µM

**Q.** How did the IC50 [12] turn out when `COc1ccc2c(c1)/C(=C\c1ccc3c(-c4ccc(N(C)C)nc4)n[nH]c3c1)C(=O)N2` [Compound 11] was run?
**A.** < 5 µM

**Q.** And the IC50 ([13]; read-out: IC50 Ranges Aurora A)?
**A.** < 5 µM

**Q.** What about the IC50 [9] of the same compound?
**A.** < 5 µM

**Q.** Which IC50 [9] does the source give for `COc1ccc2c(c1)C1(CC1c1ccc3c(I)n[nH]c3c1)C(=O)N2` (centres unmarked) [Compound 12] here?
**A.** < 5 µM

**Q.** For `O=C1Nc2ccccc2/C1=C\c1ccc2[nH]nnc2c1` [Compound 24], which “% Inhibition at 10 μM Concentration” value [10] is on record?
**A.** 15%

**Q.** For `O=C1Nc2ccccc2/C1=C\c1ccc2cn[nH]c2c1` [Compound 26], which “% Inhibition at 10 μM Concentration” value [10] is on record?
**A.** 54%

**Q.** With `O=C1Nc2ccccc2/C1=C\c1ccc2c(/C=C/c3ccncc3)n[nH]c2c1` [Compound 28] as the compound, how does the IC50 [11] read?
**A.** < 5 µM

**Q.** Which “% Inhibition at 10 μM Concentration” value [10] does the source give for `O=C1Nc2ccccc2/C1=C\c1ccc2c(/C=C/c3ccccc3Cl)n[nH]c2c1` [Compound 29] here?
**A.** 8%

**Q.** Which “% Inhibition at 10 μM Concentration” value [10] does the source give for `COc1ccc2c(c1)C(=Cc1ccc3c(-c4ccc(N5CCN(C)CC5)nc4)n[nH]c3c1)C(=O)N2` [Compound 31] here?
**A.** 76%

**Q.** And the IC50 [11]?
**A.** < 5 µM

**Q.** Which IC50 [12] does the source give for `COc1ccc2c(c1)[C@]1(C[C@H]1c1ccc3c(/C=C/c4ccc(CN5CCOCC5)cc4)n[nH]c3c1)C(=O)N2C` [Compound 36] here?
**A.** < 5 µM

**Q.** And the inhibition at 10 µM [13]?
**A.** > 50%

**Q.** Which inhibition at 10 µM [13] does the source give for `COc1ccc2c(c1)[C@]1(C[C@H]1c1ccc3c(/C=C/c4ccc(CN5C[C@@H](C)O[C@@H](C)C5)cc4)n[nH]c3c1)C(=O)N2` [Compound 37] here?
**A.** > 50%

**Q.** Which inhibition at 10 µM [13] does the source give for `C[C@@H]1CN(Cc2ccc(/C=C/c3n[nH]c4cc([C@@H]5C[C@@]56C(=O)Nc5ccccc56)ccc34)cc2)C[C@H](C)O1` [Compound 38] here?
**A.** > 50%

**Q.** `CN(C)Cc1ccc(/C=C/c2n[nH]c3cc(C=C4C(=O)Nc5ccccc54)ccc23)cc1` [Compound 39] was tested. Which inhibition at 10 µM [13] did it give?
**A.** > 50%

**Q.** And the inhibition at 10 µM [1]?
**A.** < 50%

**Q.** And the IC50 [11]?
**A.** < 5 µM
